Literature values, collected in patent publication US20140023692A1, “DRUG DELIVERY DEVICE” (priority 2010, published 2014).
In brackets after ≈: the same amount, converted by molar mass. Several values for one entry are separate records, joined by “and”; a condition that tells them apart may be missing. Identical values can stand only once. Like-named read-outs stand apart in the source and are kept apart here.

How the values were obtained:
[1] = tested on: Enterobacter
[2] = tested on: Proteus
[3] = tested on: Propionibacterium acnes
[4] = tested on: Serratia
[5] = tested on: Staphylococcus aureus
[6] = tested on: Haemophilus influenzae
[7] = tested on: Pseudomonas
[8] = tested on: Staphylococcus epidermidis
[9] = topical application, rabbit
[10] = tested on: Klebsiella
[11] = tested on: Streptococcus pyogenes
[12] = tested on: Bacillus cereus
[13] = inflamed eyes (intravitreal Staphylococcus aureus, 24 h after inoculation)

Structure (SMILES): O=C(O)c1cn(C2CC2)c2cc(N3CCNCC3)c(F)cc2c1=O [ciprofloxacin]
- MIC90 [1]: 0.206 mg/L (≈ 0.622 µM)
- MIC90 [2]: 0.267 mg/L (≈ 0.806 µM)
- MIC90 [3]: 0.35 mg/L (≈ 1.06 µM)
- MIC90 [4]: 0.12 mg/L (≈ 0.362 µM)
- MIC90 [5]: 0.57 mg/L and 0.796 mg/L
- MIC90 [6]: 0.014 mg/L (≈ 0.0423 µM)
- MIC90 [7]: 0.50 mg/L and 0.626 mg/L
- MIC90 [8]: 0.25 mg/L and 0.375 mg/L
- Mean aqueous concentration of ciprofloxacin [9, 13]: 3.65 µg/mL
- Mean vitreous concentration of ciprofloxacin [9, 13]: 0.32 µg/mL
- Mean aqueous concentration of ciprofloxacin ([9]; normal eyes): 2.16 µg/mL
- Mean vitreous concentration of ciprofloxacin ([9]; normal eyes): 0.08 µg/mL
- MIC90 [10]: 0.295 mg/L (≈ 0.89 µM)
- MIC90 [11]: 0.782 mg/L (≈ 2.36 µM)
- MIC90 [12]: 0.25 mg/L (≈ 0.754 µM)
